Source: patent EP0399422A1, “Benzocycloalkane derivatives and production thereof” (Takeda Chemical Industries, Ltd., priority 1989, dated 1990)
Marks after values point to notes of the source that are not given here.

Columns and labels:
[1] = tested on: Acyl-CoA:cholesterol acyl transferase (ACAT); test: Acyl-CoA:cholesterol acyl transferase (ACAT) inhibiting activity; assay type: biochemical, male Sprague-Dawley rats; parameters: tested at 1 µM; conditions: inhibition of labeled cholesterol ester formation at 10⁻⁶ M of the test compounds; small intestine mucosa microsome fraction
Protocol: An ACAT enzyme preparation was obtained from the small intestine mucosa microsome fraction from male Sprague-Dawley rats of 6 weeks of age fasted for 20 hours, as described by Heider et al. [Journal of Lipid Research, 24, 1127 (1982)].
The ACAT activity was calculated by determining the yield of a labeled cholesterol ester from [1-¹⁴C]oleoyl-CoA and endogenous cholesterol using the method of Helgerud et al. [Journal of Lipid Research, 22, 271 (1981)].
The inhibition percentages of the labeled cholesterol ester formation at 10⁻⁶ M of the test compounds are shown in Table 1 as ACAT inhibiting activity indices.

cholesterol-loaded rats = test: Plasma cholesterol lowering activity in cholesterol-loaded rats; assay type: in vivo, Male Sprague-Dawley rats; conditions: 1% cholesterol diet containing 0.01% test compound for 4 days; dose 8.5 mg/kg/day; control group 266 + 46; p<0.01
Protocol: Male Sprague-Dawley rats of 7 weeks of age were fed with a 1% cholesterol diet (containing 0.5% cholic acid and 5% olive oil) for 3 days, then grouped by plasma cholesterol level and further fed with the same diet containing 0.01% test compound for 4 days. Blood samples were collected at 8:30 a.m. to 10:00 a.m. while the animals were satiated, and plasma cholesterol levels were determined enzymatically. Intakes of the compound were calculated from food intake data.

| SMILES | % ACAT inhibition [1] [%] | Plasma cholesterol (cholesterol-loaded rats) |
| --- | --- | --- |
| O=C(Nc1ccc(F)cc1F)N(Cc1ccccc1)C1CCc2ccccc21 (stereo not shown) [Example 57, N-Benzyl-N′-(2,4-difluorophenyl)-N-(1-indanyl)urea] | 84 | – |
| O=C(Nc1ccc(F)cc1F)N(Cc1ccccc1)C1CCCc2ccccc21 (stereo not shown) [Example 58, N-Benzyl-N′-(2,4-difluorophenyl)-N-(1,2,3,4-tetrahydro-1-naphthyl)urea] | 94 | – |
| O=C(Nc1ccc(F)cc1F)N(Cc1ccccc1)C1CCCCc2ccccc21 (stereo not shown) [Example 59, N-Benzyl-N′-(2,4-difluorophenyl)-N-(6,7,8,9-tetrahydro-5H-5-benzocycloheptenyl)urea] | 80 | – |
| COc1cc(CN(C(=O)Nc2ccc(F)cc2F)C2CCc3ccccc32)cc(OC)c1O (stereo not shown) [Example 60, N-(2,4-Difluorophenyl)-N′-(4-hydroxy-3,5-dimethoxybenzyl)-N′-(1-indanyl)urea] | 83 | – |
| COc1cc(CN(C(=O)Nc2ccc(F)cc2F)C2CCCc3ccccc32)cc(OC)c1O (stereo not shown) [Example 61, N-(2,4-Difluorophenyl)-N′-(4-hydroxy-3,5-dimethoxybenzyl)-N′-(1,2,3,4-tetrahydro-1-naphthyl)urea] | 53 | – |
| COc1cc(CN(C(=O)Nc2ccc(F)cc2F)C2CCCCc3ccccc32)cc(OC)c1O (stereo not shown) [Example 62, N-(2,4-Difluorophenyl)-N′-(6,7,8,9-tetrahydro-5H-5-benzocycloheptenyl)-N′-(4-hydroxy-3,5-dimethoxybenzyl)urea] | 69 | – |

The next lines start with results.

| % ACAT inhibition [1] [%] | SMILES | Plasma cholesterol (cholesterol-loaded rats) |
| --- | --- | --- |
| 84 | O=C(Nc1ccc(F)cc1F)N(Cc1ccccc1Cl)C1Cc2ccccc2C1 [Example 1, N-(2-chlorobenzyl)-N′-(2,4-difluorophenyl)-N-(2-indanyl)urea] | 128 + 47* mg/dl |
| 85 | Cc1cc(O)c(C(C)(C)C)cc1CN(C(=O)Nc1ccc(F)cc1F)C1CCCc2ccccc2C1 (stereo not shown) [Example 50, N-(5-tert-Butyl-4-hydroxy-2-methylbenzyl)-N′-(2,4-difluorophenyl)-N-(6,7,8,9-tetrahydro-5H-6-benzocycloheptenyl)urea] | – |
| 79 | Cc1ccc(C)c(CN(C(=O)Nc2ccc(F)cc2F)C2CCCc3ccccc3C2)c1 (stereo not shown) [Example 56, N-(2,4-Difluorophenyl)-N′-(6,7,8,9-tetrahydro-5H-6-benzocycloheptenyl)-N′-(2,5-dimethylbenzyl)urea] | – |
